Patent US7232829B2, “Therapeutic compounds and methods” (Regents of the University of Minnesota, priority 2001, dated 2007)
Read-outs that look alike come from different tables or passages of the source.

Assays:
[1] = target: T1, kappa opioid receptor (Cavia porcellus, UniProt P41144); assay: Antagonism of ethylketazocine (EK) in the electrically stimulated guinea-pig ileal longitudinal muscle (GPI) preparation; type: cell-based; details: for EK (κ) IC50 ratio: GPI, antagonist tested at 100 nM, mean (n)
T1 construct: tested on the electrically stimulated guinea-pig ileal longitudinal muscle (GPI); from tissue; host or cells: guinea-pig ileal longitudinal muscle
T1 sequence (P41144 whole entry): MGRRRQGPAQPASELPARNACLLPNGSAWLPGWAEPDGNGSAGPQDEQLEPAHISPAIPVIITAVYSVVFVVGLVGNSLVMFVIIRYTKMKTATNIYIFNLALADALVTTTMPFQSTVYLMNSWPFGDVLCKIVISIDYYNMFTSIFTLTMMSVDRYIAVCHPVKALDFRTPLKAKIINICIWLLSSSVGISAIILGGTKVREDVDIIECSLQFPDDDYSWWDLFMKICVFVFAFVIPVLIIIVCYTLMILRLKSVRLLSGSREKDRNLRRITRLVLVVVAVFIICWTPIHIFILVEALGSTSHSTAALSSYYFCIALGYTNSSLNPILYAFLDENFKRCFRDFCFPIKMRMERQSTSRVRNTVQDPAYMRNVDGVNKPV
Procedure: (§1) Smooth Muscle Preparations. […] All of the compounds were tested on the electrically stimulated guinea-pig ileal longitudinal muscle (GPI), see Rang, H. P. Stimulant Actions of Volatile Anaesthetics on Smooth Muscle. Br. J. Pharmacol. 1964, 22, 356–365, and the mouse vas-deferens (MVD), see Henderson, G.; Hughes, J.; Kosterlitz, H. W. A New Example of a Morphine-Sensitive Neuroeffector Junction: Adrenergic Transmission in the Mouse vas Deferens. Br. J. Pharmacol. 1972, 46, 764–766, preparations for their agonist and antagonist activities as previously described, see (a) Portoghese, P. S.; Lipkowski, A. W.; Takemori, A. E. Binaltorphimine and Nor-binaltorphimine, Potent and Selective Kappa-Opioid Receptor Antagonists. Life Sci. 1987, 40, 1287–1292. (b) Portoghese, P. S.; Takemori, A. E. TENA. A Selective Kappa Opioid Receptor Antagonist. Life Sci. 1985, 36, 801–805. […] Morphine (M), (−)-ethylketazocine (EK), and [D-Ala^2,D-Leu^5]enkephalin (DADLE) were employed as mu, kappa and delta selective agonists, respectively. Morphine and EK were used in the GPI, and DADLE was employed in the MVD studies. Concentration-response curves were obtained in the absence (control) and presence of the antagonist in the same preparation. Antagonist potency is expressed as an IC50 ratio, that is the IC50 of the agonist in the presence of antagonist divided by the control IC50 of the agonist in the same preparation, and as a Ke value derived from the relationship, Ke=[antagonist]/[…].

[2] = target: T2, delta opioid receptor (Mus musculus, UniProt P32300); assay: Antagonism of DADLE in the mouse vas-deferens (MVD) preparation; type: cell-based; details: for DADLE (δ) IC50 ratio: MVD, antagonist tested at 100 nM, mean ± SEM (n); for delta opioid receptor antagonist activity (in words): smooth muscle preparations
T2 construct: and the mouse vas-deferens (MVD); from tissue; host or cells: mouse vas deferens
T2 sequence (P32300 whole entry): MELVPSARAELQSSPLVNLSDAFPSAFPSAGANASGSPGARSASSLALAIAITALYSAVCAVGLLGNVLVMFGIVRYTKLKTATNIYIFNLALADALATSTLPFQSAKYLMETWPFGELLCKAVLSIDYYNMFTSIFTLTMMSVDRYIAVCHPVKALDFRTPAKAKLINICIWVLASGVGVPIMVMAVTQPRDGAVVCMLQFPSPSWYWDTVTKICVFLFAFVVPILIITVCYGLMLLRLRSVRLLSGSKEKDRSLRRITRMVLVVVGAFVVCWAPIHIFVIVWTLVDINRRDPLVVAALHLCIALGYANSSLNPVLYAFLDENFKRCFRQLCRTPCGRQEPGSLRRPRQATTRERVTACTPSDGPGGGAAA
Procedure: as §1

[3] = tested on: mu opioid receptor; assay: Antagonism of morphine (M) in the electrically stimulated guinea-pig ileal longitudinal muscle (GPI) preparation; type: cell-based; details: for M (μ) Ke: GPI preparation, agonist morphine, Ke derived from IC50 ratio; for M (μ) IC50 ratio: GPI, antagonist tested at 100 nM, mean ± SEM (n); for mu opioid receptor antagonist activity (in words): smooth muscle preparations
Procedure: as §1

[4] = target: T3, rat kappa-opioid receptor (Rattus norvegicus, UniProt P34975); assay: [3H]diprenorphine binding on transiently transfected HEK-293 cells, kappa; details: for Ki: [3H]diprenorphine, HEK-293 cells, rat kappa receptor, read-out: Ki κ
T3 construct: expressed in transfected cells; host or cells: HEK-293 (transient, calcium phosphate)
T3 sequence (P34975 whole entry): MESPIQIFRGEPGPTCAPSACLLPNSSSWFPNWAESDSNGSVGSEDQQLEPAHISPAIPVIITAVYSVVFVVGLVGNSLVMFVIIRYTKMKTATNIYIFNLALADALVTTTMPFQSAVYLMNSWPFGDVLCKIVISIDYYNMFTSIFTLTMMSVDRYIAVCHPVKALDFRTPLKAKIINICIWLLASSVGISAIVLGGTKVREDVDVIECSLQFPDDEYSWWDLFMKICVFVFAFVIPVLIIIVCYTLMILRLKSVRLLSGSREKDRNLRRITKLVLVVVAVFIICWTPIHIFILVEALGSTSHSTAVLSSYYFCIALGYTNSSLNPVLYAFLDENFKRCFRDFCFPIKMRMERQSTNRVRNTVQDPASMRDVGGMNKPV
Procedure: (§2) Receptor Binding. HEK-293 in DMEM (Gibco, BRL) supplemented with 10% Bovine Calf Serum (Hyclone) and 1% penicillin/streptomycin (Gibco, BRL) were maintained at 37° C. and in 5% CO2. Cells were seeded at 16% for 24 hours prior to transfection. Fresh media was added 2 hours prior to transfection. Cells were transfected with plasmid DNA (20 μg/100 mm plate) of either wild type or mutant receptor cDNA using the calcium phosphate precipitation method, see Chen, C.; Okayama, H. High Efficiency Transformation of Mammalian Cells by Plasmid DNA. Mol. Cell. Bio. 1987, 7, 2745–2752. Media was changed 5 hours after transfection. Transfected cells were harvested 48–72 hours after transfection for binding studies.
(§3) Sixty to 72 hours after transfection, HEK cells were washed three times with 25 mM HEPES buffer (pH 7.4) and were resuspended with 8–12 mL of 25 mM HEPES/100 mm plate. Saturation binding assays were performed in triplicate. Nonselective binding was determined using 10 μM naltrexone. Assays were incubated at room temperature for 90 minutes in a total binding volume of 0.5 mL and were terminated by filtration through a Whatman GF/B filter that had been presoaked in 0.25% poly(ethyleneimine) immediately prior to filtration. Filters were washed three times with 4 mL of ice-cold 25 mM HEPES buffer, and scintillation counting was performed with a Beckman 3801 LS Scintillation Counter. Protein concentrations were determined by the method of Bradford, see Bradford, M. M. A Rapid and Selective Method for the Quantitation of Microgram Quantities of Protein utilizing the Principle of Protein-dye Binding. Anal. Biochem. 1976, 72, 248–254. Raw binding data was analyzed with RADLIG and LIGAND (G. A. McPherson, Biosoft, Cambridge, UK). Inhibition constants (Ki) were determined from IC50 values with the Cheng-Prusoff equation, see Cheng, Y. C.; Prusoff, W. H.; Relationship between the inhibition Constant (Ki) and the concentration of inhibitor which causes 50 per cent inhibition (I50) of an enzymatic reaction. Biochem. Pharmacol. 1973, 22, 3099–3108.
(§4) As summarized in Table 2, receptor binding was determined in triplicate using [^3H]diprenorphine on HEK-293 cells that were transiently transfected with plasmids encoding rat kappa-, rat mu-, or mouse delta-opioid receptors.

[5] = target: T4, mouse delta-opioid receptor (Mus musculus, UniProt P32300); assay: [3H]diprenorphine binding on transiently transfected HEK-293 cells, delta; details: for Ki: [3H]diprenorphine, HEK-293 cells, mouse delta receptor, read-out: Ki δ; for binding to delta receptor (in words): cloned receptors, HEK-293
T4 construct: expressed in transfected cells; host or cells: HEK-293 (transient, calcium phosphate)
T4 sequence (P32300 whole entry): as the sequence (P32300 whole entry) above
Procedure: as §2, §3
As summarized in Table 2, receptor binding was determined in triplicate using [^3H]diprenorphine on HEK-293 cells that were transiently transfected with plasmids encoding rat kappa-, rat mu-, or mouse delta-opioid receptors. […] The results are consistent with the kappa agonist selectivity of compound 4b observed in the GPI. […] Binding to mu receptors was uniformly low for all regioisomers.

[6] = target: T5, rat mu-opioid receptor (Rattus norvegicus, UniProt P33535); assay: [3H]diprenorphine binding on transiently transfected HEK-293 cells, mu; details: for Ki: [3H]diprenorphine, HEK-293 cells, rat mu receptor, read-out: Ki μ
T5 construct: expressed in transfected cells; host or cells: HEK-293 (transient, calcium phosphate)
T5 sequence (P33535 whole entry): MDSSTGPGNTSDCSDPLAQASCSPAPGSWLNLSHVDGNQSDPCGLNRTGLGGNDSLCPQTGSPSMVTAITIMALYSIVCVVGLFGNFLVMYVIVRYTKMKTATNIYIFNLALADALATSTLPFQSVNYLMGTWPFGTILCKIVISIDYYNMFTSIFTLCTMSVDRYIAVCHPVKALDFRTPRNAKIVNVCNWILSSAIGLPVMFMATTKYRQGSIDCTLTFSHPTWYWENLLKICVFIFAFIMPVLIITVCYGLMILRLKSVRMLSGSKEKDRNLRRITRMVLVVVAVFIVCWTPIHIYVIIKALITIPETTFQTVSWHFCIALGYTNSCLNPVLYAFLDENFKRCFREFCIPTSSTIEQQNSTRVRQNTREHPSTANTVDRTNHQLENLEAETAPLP
Procedure: as §2, §3, §4

[7] = tested on: guinea-pig ileal longitudinal muscle (GPI); assay: Agonist activity in the GPI assay (concentration-response compared to morphine, reversal by antagonists); type: cell-based
Procedure: as §1

[8] = tested on: mouse vas-deferens (MVD); assay: Agonist activity in the MVD assay; type: cell-based; details: at 1 μM
Procedure: as §1, with “Concentration-response curves were obtained in the absence (control) and presence of the antagonist in the same preparation.” left out

N=C(N)Nc1cccc2c3c([nH]c12)[C@@H]1Oc2c(O)ccc4c2[C@@]12CCN(CC1CC1)[C@H](C4)[C@]2(O)C3 [Compound 4c, 7′-Guanidino-17-(cyclopropylmethyl)-6,7-didehydro-4,5α-epoxy-3,14-hydroxyindolo-[2′,3′:6,7]morphinian]
Kb [1]: 100 nM | EK (κ) IC50 ratio [1]: 2.0 (2) | kappa opioid receptor antagonist activity (in words) ([1]; smooth muscle preparations): inactive | Kb [2]: 0.96 nM | DADLE (δ) IC50 ratio [2]: 105 ± 30 (4) | delta opioid receptor antagonist activity (in words) [2]: potent delta opioid receptor antagonist | M (μ) Ke [3]: 238 nM | M (μ) IC50 ratio [3]: 1.4 ± 0.9 (3) | mu opioid receptor antagonist activity (in words) [3]: inactive | Ki [4]: 69.1 ± 25 nM | Ki [5]: 2.75 ± 0.48 nM | binding to delta receptor (in words) [5]: delta selectivity | Ki [6]: 181 ± 20 nM

N=C(N)Nc1cccc2[nH]c3c(c12)C[C@@]1(O)[C@H]2Cc4ccc(O)c5c4[C@@]1(CCN2CC1CC1)[C@H]3O5 [Compound 4a, 4′-Guanidino-17-(cyclopropylmethyl)-6,7-didehydro-4,5α-epoxy-3,14-hydroxyindolo-[2′,3′:6,7]morphinian]
Kb [1]: 80 nM | EK (κ) IC50 ratio [1]: 2.3 (2) | kappa opioid receptor antagonist activity (in words) ([1]; smooth muscle preparations): virtually inactive | Kb [2]: 263 nM | DADLE (δ) IC50 ratio [2]: 1.4 (2) | delta opioid receptor antagonist activity (in words) [2]: virtually inactive | M (μ) IC50 ratio [3]: 0.34 (2) | mu opioid receptor antagonist activity (in words) [3]: virtually inactive | binding to kappa receptor (in words) ([4]; cloned receptors, HEK-293): eliminated binding | binding to delta receptor (in words) [5]: eliminated binding | binding to mu receptor (in words) ([6]; cloned receptors, HEK-293): eliminated binding

N=C(N)Nc1ccc2[nH]c3c(c2c1)C[C@@]1(O)[C@H]2Cc4ccc(O)c5c4[C@@]1(CCN2CC1CC1)[C@H]3O5 [Compound 3, 5′-Guanidino-17-(cyclopropylmethyl)-6,7-didehydro-4,5α-epoxy-3,14-hydroxyindolo-[2′,3′:6,7]morphinian, reference compound]
Kb [1]: 0.16 nM | kappa antagonist potency relative to norBNI 1 ([1]; smooth muscle preparations): approximately four-fold | kappa opioid receptor antagonist activity (in words) ([1]; smooth muscle preparations): highly potent and selective kappa opioid receptor antagonist | Ki [4]: 0.14 ± 0.03 nM | affinity for the kappa receptor relative to mu and delta receptors ([4]; cloned receptors, HEK-293): greater than two orders of magnitude | Ki [5]: 24.8 ± 11.3 nM | Ki [6]: 99.7 ± 8.7 nM

N=C(N)Nc1ccc2c3c([nH]c2c1)[C@@H]1Oc2c(O)ccc4c2[C@@]12CCN(CC1CC1)[C@H](C4)[C@]2(O)C3 [Compound 4b, 6′-Guanidino-17-(cyclopropylmethyl)-6,7-didehydro-4,5α-epoxy-3,14-hydroxyindolo-[2′,3′:6,7]morphinian]
agonist potency relative to that of morphine ([7]; GPI assay, FIG. 5): 51 fold | agonist activity and selectivity (in words) ([7]; GPI assay, with MVD results): kappa-selective agonist | reversal of the agonist effect by naltrexone ([7]; GPI, naltrexone 500 nM): only partially reversed | reversal of the agonist effect by norBNI ([7]; GPI, norBNI 20 nM): completely reversed | agonist activity in MVD assay [8]: inactive as an agonist | Ki [4]: 1.15 ± 0.39 nM | affinity for kappa receptors relative to GNTI ([4]; cloned receptors, HEK-293): one-tenth | binding to kappa receptor (in words) ([4]; cloned receptors, HEK-293): kappa-selective | Ki [5]: 20.3 ± 6.7 nM | Ki [6]: 81.8 ± 20.7 nM

Oc1ccc2c3c1O[C@H]1c4[nH]c5c(c4C[C@@]4(O)[C@@H](C2)N(CC2CC2)CC[C@]314)C[C@@]1(O)[C@H]2Cc3ccc(O)c4c3[C@@]1(CCN2CC1CC1)[C@H]5O4 [Compound 1, Norbinaltorphimine, reference compound]
Kb ([1]; GPI preparation, agonist ethylketazocine, Ke derived from IC50 ratio, read-out: EK (κ) Ke): 0.41 nM | M (μ) Ke [3]: 12.5 nM
